Where a SMILES comes first, the peptide text is derived from it. [ ]: non-standard residue; d: D form. The star is where a group is joined. ξ: configuration not given here. X9 = CN(CCCc1ccccc1)[C@@H](CC1CCCCC1)C(=O)*; d(hhPhe) = N[C@H](CCCc1ccccc1)C(=O)O; X4 = O=C(C=Cc1ccccc1[N+](=O)[O-])*; Hydrocinnamoyl = O=C(CCc1ccccc1)*; hPhe = N[C@@H](CCc1ccccc1)C(=O)O; Cha = N[C@@H](CC1CCCCC1)C(=O)O; ξhhPhe = NC(CCCc1ccccc1)C(=O)O; X6 = O=C(c1cc2ccccc2[nH]1)*; 3Amb = NCc1cccc(C(=O)O)c1; X7 = O=C(C(O)CC1CCCCC1)*; X3 = Nc1ccccc1C=CC(=O)*; PhAc = O=C(Cc1ccccc1)*; X12 = CC(c1ccccc1)*; Ahx = NCCCCCC(=O)O; Bn = c1ccc(C*)cc1
Molecular target: T1, C5a receptor (Homo sapiens, UniProt P21730)
T1 construct: from tissue; host or cells: polymorphonuclear leukocyte (PMNL) membrane fragments
T1 sequence (P21730 1-350): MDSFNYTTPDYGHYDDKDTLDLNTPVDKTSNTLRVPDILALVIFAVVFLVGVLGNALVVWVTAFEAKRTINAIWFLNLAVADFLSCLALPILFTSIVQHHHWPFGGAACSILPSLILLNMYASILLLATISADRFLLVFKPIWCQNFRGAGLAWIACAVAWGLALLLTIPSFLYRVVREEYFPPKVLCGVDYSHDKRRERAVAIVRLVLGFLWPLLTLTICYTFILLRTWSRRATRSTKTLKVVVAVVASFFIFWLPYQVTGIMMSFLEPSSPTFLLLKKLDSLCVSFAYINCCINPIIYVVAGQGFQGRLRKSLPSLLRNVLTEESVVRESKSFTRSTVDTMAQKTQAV
Assay: Anaphylatoxin (C5a) receptor binding Ki determination, 125I-C5a on PMNL membrane fragments
Conditions: read-out: Ki (In vitro C5a Receptor Binding Potency)
Experimental: The membrane-bound radiolabeled C5a was separated from the free radiolabeled C5a by filtration, and the recovered gamma radioactivity was measured. […] Free and membrane-bound ligand were separated by filtration.

## CC(C)C[C@H](NC(=O)[C@H](C)NC(=O)[C@H](CC1CCCCC1)NC(=O)[C@@H]1CCCN1C(=O)CCCCCN)C(=O)NC(CCCc1ccccc1)C(=O)N[C@@H](CCCNC(=N)N)C(=O)O (stereo partly drawn) [Example 81, N-(6-Aminohexanoyl)-Prolyl-{(2S)-2-Amino-3-cyclohexylpropanoyl}-Alanyl-Leucyl-{(+)-2-Amino-5-phenylpentanoyl}-Arginyl-OH] (H-[Ahx]P[Cha]AL[ξhhPhe]R-OH)
  Ki: 110 nM

## CC(C)C[C@H](NC(=O)CNC(=O)[C@@H](N)CSCc1ccccc1)C(=O)N[C@H](CCCc1ccccc1)C(=O)N[C@@H](CCCNC(=N)N)C(=O)O [Example 90, H-Cysteinyl(S-benzyl)-Glycyl-Leucyl-{(R)-2-Amino-5-phenylpentanoyl}-Arginyl-OH] (H-C(Bn)GL[d(hhPhe)]R-OH)
  Ki: 180 nM

## CC(C)C[C@H](NC(=O)CNC(=O)[C@@H](N)CSC(C)c1ccccc1)C(=O)N[C@H](CCCc1ccccc1)C(=O)N[C@@H](CCCNC(=N)N)C(=O)O (stereo partly drawn) [Example 91, H-Cysteinyl(S-1-phenethyl)-Glycyl-Leucyl-{(R)-2-Amino-5-phenylpentanoyl}-Arginyl-OH] (H-C(X12)GL[d(hhPhe)]R-OH)
  Ki: 390 nM

## CC(C)C[C@H](NC(=O)CNC(=O)CCc1ccccc1)C(=O)N[C@H](CCCc1ccccc1)C(=O)N[C@@H](CCCNC(=N)N)C(=O)O [Example 92, N-(3-Phenylpropanoyl)-Glycyl-Leucyl-{(R)-2-Amino-5-phenylpentanoyl}-Arginyl-OH] (Hydrocinnamoyl-GL[d(hhPhe)]R-OH)
  Ki: 750 nM

## CC(C)C[C@H](NC(=O)CNC(=O)Cc1ccccc1)C(=O)N[C@H](CCCc1ccccc1)C(=O)N[C@@H](CCCNC(=N)N)C(=O)O [Example 93, N-Phenylacetyl-Glycyl-Leucyl-{(R)-2-Amino-5-phenylpentanoyl}-Arginyl-OH] (PhAc-GL[d(hhPhe)]R-OH)
  Ki: 170 nM

## CC(C)C[C@H](NC(=O)CNC(=O)[C@H](CC1CCCCC1)N(C)CCCc1ccccc1)C(=O)N[C@H](CCCc1ccccc1)C(=O)N[C@@H](CCCNC(=N)N)C(=O)O [Example 103, N-(3-Phenylpropyl)-N-methyl-{(2S)-2-Amino-3-cyclohexylpropanoyl}-Glycyl-Leucyl-{(R)-2-Amino-5-phenylpentanoyl}-Arginyl-OH] (X9-GL[d(hhPhe)]R-OH)
  Ki: 1320 nM

## CC(C)C[C@H](NC(=O)CNC(=O)C=Cc1ccccc1N)C(=O)N[C@H](CCCc1ccccc1)C(=O)N[C@@H](CCCNC(=N)N)C(=O)O [Example 106, N-(2-Aminocinnamoyl)-Glycyl-Leucyl-{(R)-2-Amino-5-phenylpentanoyl}-Arginyl-OH] (X3-GL[d(hhPhe)]R-OH)
  Ki: 410 nM

## CC(C)C[C@H](NC(=O)CNC(=O)C=Cc1ccccc1[N+](=O)[O-])C(=O)N[C@H](CCCc1ccccc1)C(=O)N[C@@H](CCCNC(=N)N)C(=O)O [Example 107, N-(2-Nitrocinnamoyl)-Glycyl-Leucyl-{(R)-2-Amino-5-phenylpentanoyl}-Arginyl-OH] (X4-GL[d(hhPhe)]R-OH)
  Ki: 87 nM

## CC(C)C[C@H](NC(=O)[C@H](C)NC(=O)[C@H](CC1CCCCC1)NC(=O)[C@@H]1CCCN1C(=O)[C@H](CCCCN)NC(=O)CN)C(=O)N[C@@H](CSCc1ccccc1)C(=O)N[C@@H](CCCNC(=N)N)C(=O)O [Example 108, H-Glycyl-Lysyl-Prolyl-{(2S)-2-Amino-3-cyclohexylpropanoyl}-Alanyl-Leucyl-Cysteinyl(S-benzyl)-Arginyl-OH] (H-GKP[Cha]ALC(Bn)R-OH)
  Ki: 4800 nM

## N=C(N)NCCC[C@H](NC(=O)C(CCCc1ccccc1)NC(=O)c1cccc(CNC(=O)[C@H](CC2CCCCC2)NC(=O)[C@@H]2CCCN2C(=O)CCCCCN)c1)C(=O)O (stereo partly drawn) [Example 109, N-(6-Aminohexanoyl)-Prolyl-{(2S)-2-Amino-3-cyclohexylpropanoyl}-(3-Aminomethylbenzoyl)-{(+)-2-Amino-5-phenylpentanoyl}-Arginyl-OH] (H-[Ahx]P[Cha][3Amb][ξhhPhe]R-OH)
  Ki: 4800 nM

## CC(C)C[C@H](NC(=O)CNC(=O)[C@@H](N)Cc1ccccc1)C(=O)N[C@H](CCCc1ccccc1)C(=O)N[C@@H](CCCNC(=N)N)C(=O)O [Example 116, H-Phenylalanyl-Glycyl-Leucyl-{(R)-2-Amino-5-phenylpentanoyl}-Arginyl-OH] (H-FGL[d(hhPhe)]R-OH)
  Ki: 630 nM

## CC(C)C[C@H](NC(=O)CNC(=O)[C@@H](N)CCc1ccccc1)C(=O)N[C@H](CCCc1ccccc1)C(=O)N[C@@H](CCCNC(=N)N)C(=O)O [Example 117, H-{(S)-2-Amino-4-phenylbutyryl}-Glycyl-Leucyl-{(R)-2-Amino-5-phenylpentanoyl}-Arginyl-OH] (H-[hPhe]GL[d(hhPhe)]R-OH)
  Ki: 370 nM

## CC(C)C[C@H](NC(=O)CNC(=O)[C@@H](N)Cc1c[nH]c2ccccc12)C(=O)N[C@H](CCCc1ccccc1)C(=O)N[C@@H](CCCNC(=N)N)C(=O)O [Example 130, H-Tryptophanyl-Glycyl-Leucyl-{(R)-2-Amino-5-phenylpentanoyl}-Arginyl-OH] (H-WGL[d(hhPhe)]R-OH)
  Ki: 140 nM

## CC(C)C[C@H](NC(=O)CNC(=O)c1cc2ccccc2[nH]1)C(=O)N[C@H](CCCc1ccccc1)C(=O)N[C@@H](CCCNC(=N)N)C(=O)O [Example 131, N-[(Indol-2-yl)-carbonyl]-Glycyl-Leucyl-{(R)-2-Amino-5-phenylpentanoyl}-Arginyl-OH] (X6-GL[d(hhPhe)]R-OH)
  Ki: 560 nM

## CC(C)C[C@H](NC(=O)CNC(=O)C(O)CC1CCCCC1)C(=O)N[C@H](CCCc1ccccc1)C(=O)N[C@@H](CCCNC(=N)N)C(=O)O (stereo partly drawn) [Example 132, N-(3-Cyclohexyl-2-hydroxypropionyl)-Glycyl-Leucyl-{(R)-2-Amino-5-phenylpentanoyl}-Arginyl-OH] (X7-GL[d(hhPhe)]R-OH)
  Ki: 420 nM

— patent US5663148A, “Anaphylatoxin receptor ligands containing lipophilic residues” (Abbott Laboratories, priority 1994, dated 1997)
